From the supplement of paper PMC10307832

Key:
Experiment in all cases: relative viability (nuclei count vs DMSO), 5 days (fraction); higher = more cells survive
NCI-H322M = test system: NCI-H322M
Procedure, shortened: (§1)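 Lung cancer cell lines, seeded in 1536-well plates, were treated the following day by pin tool with a single drug or with five library-drug doses (not always all listed) in √10 steps on top of a fixed anchor-drug dose. Cells were fixed and nuclei stained in one step after 5 days, and nuclei were counted. Relative viability is the nuclei count for treated wells divided by that for vehicle wells, reported as medians of duplicate plates.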

CAL-12T = test system: CAL-12T
Procedure, shortened: as §1

COR-L 105 = test system: COR-L 105
Procedure, shortened: as §1

NCI-H2023 = test system: NCI-H2023
Procedure, shortened: as §1

ChaGo-K-1 = test system: ChaGo-K-1
Procedure, shortened: as §1

HCC-15 = test system: HCC-15
Procedure, shortened: as §1

NCI-H2085 = test system: NCI-H2085
Procedure, shortened: as §1

HOP-62 = test system: HOP-62
Procedure, shortened: as §1

NCI-H1975 = test system: NCI-H1975
Procedure, shortened: as §1

ABC-1 = test system: ABC-1
Procedure, shortened: as §1

NCI-H1666 = test system: NCI-H1666
Procedure, shortened: as §1

EMC-BAC-2 = test system: EMC-BAC-2
Procedure, shortened: as §1

NCI-H1915 = test system: NCI-H1915
Procedure, shortened: as §1

UMC-11 = test system: UMC-11
Procedure, shortened: as §1

NCI-H3122 = test system: NCI-H3122
Procedure, shortened: as §1

NCI-H1755 = test system: NCI-H1755
Procedure, shortened: as §1

NCI-H441 = test system: NCI-H441
Procedure, shortened: as §1

NCI-H2126 = test system: NCI-H2126
Procedure, shortened: as §1

HCC-78 = test system: HCC-78
Procedure, shortened: as §1

LXF-289 = test system: LXF-289
Procedure, shortened: as §1

NCI-H358 = test system: NCI-H358
Procedure, shortened: as §1

NCI-H1993 = test system: NCI-H1993
Procedure, shortened: as §1

EPLC-272H = test system: EPLC-272H
Procedure, shortened: as §1

C=C1C(=O)O[C@@H](CCCCCCCC)[C@@H]1C(=O)O [C-75] + C[C@@H](Oc1cc(-c2cnn(C3CCNCC3)c2)cnc1N)c1c(Cl)ccc(F)c1Cl [Crizotinib] (partner 1 µM)
relative viability (NCI-H322M; first compound 0.08 µM): 0.977 | relative viability (NCI-H322M; first compound 0.253 µM): 1.19 | relative viability (NCI-H322M; first compound 0.8 µM): 0.919 | relative viability (NCI-H322M; first compound 2.53 µM): 0.971 | relative viability (NCI-H322M; first compound 8 µM): 0.973 | relative viability (CAL-12T; first compound 0.08 µM): 0.597 | relative viability (CAL-12T; first compound 0.253 µM): 0.626 | relative viability (CAL-12T; first compound 0.8 µM): 0.586 | relative viability (CAL-12T; first compound 8 µM): 0.849 | relative viability (COR-L 105; first compound 0.08 µM): 0.707 | relative viability (COR-L 105; first compound 0.253 µM): 0.808 | relative viability (COR-L 105; first compound 0.8 µM): 0.949 | relative viability (COR-L 105; first compound 2.53 µM): 0.921 | relative viability (COR-L 105; first compound 8 µM): 0.566 | relative viability (NCI-H2023; first compound 0.08 µM): 0.654 | relative viability (NCI-H2023; first compound 0.253 µM): 0.767 | relative viability (NCI-H2023; first compound 0.8 µM): 0.698 | relative viability (NCI-H2023; first compound 2.53 µM): 0.444 | relative viability (NCI-H2023; first compound 8 µM): 0.626 | relative viability (ChaGo-K-1; first compound 0.08 µM): 1.03 | relative viability (ChaGo-K-1; first compound 0.253 µM): 0.983 | relative viability (ChaGo-K-1; first compound 0.8 µM): 1.12 | relative viability (ChaGo-K-1; first compound 2.53 µM): 0.818 | relative viability (ChaGo-K-1; first compound 8 µM): 1.08 | relative viability (HCC-15; first compound 0.08 µM): 0.82 | relative viability (HCC-15; first compound 0.253 µM): 0.885 | relative viability (HCC-15; first compound 0.8 µM): 0.764 | relative viability (HCC-15; first compound 2.53 µM): 0.699 | relative viability (HCC-15; first compound 8 µM): 0.835 | relative viability (NCI-H2085; first compound 0.08 µM): 0.739 | relative viability (NCI-H2085; first compound 0.253 µM): 0.803 | relative viability (NCI-H2085; first compound 0.8 µM): 0.878 | relative viability (NCI-H2085; first compound 2.53 µM): 0.656 | relative viability (NCI-H2085; first compound 8 µM): 0.878 | relative viability (HOP-62; first compound 0.08 µM): 0.99 | relative viability (HOP-62; first compound 0.253 µM): 0.849 | relative viability (HOP-62; first compound 0.8 µM): 0.81 | relative viability (HOP-62; first compound 2.53 µM): 0.824 | relative viability (HOP-62; first compound 8 µM): 1 | relative viability (NCI-H1975; first compound 0.08 µM): 0.987 | relative viability (NCI-H1975; first compound 0.253 µM): 0.929 | relative viability (NCI-H1975; first compound 0.8 µM): 0.908 | relative viability (NCI-H1975; first compound 2.53 µM): 0.773 | relative viability (NCI-H1975; first compound 8 µM): 0.935 | relative viability (ABC-1; first compound 0.08 µM): 1.29 | relative viability (ABC-1; first compound 0.253 µM): 1.81 | relative viability (ABC-1; first compound 0.8 µM): 0.998 | relative viability (ABC-1; first compound 2.53 µM): 0.909 | relative viability (ABC-1; first compound 8 µM): 0.882 | relative viability (NCI-H1666; first compound 0.08 µM): 1.19 | relative viability (NCI-H1666; first compound 0.253 µM): 1.21 | relative viability (NCI-H1666; first compound 0.8 µM): 0.928 | relative viability (NCI-H1666; first compound 2.53 µM): 0.847 | relative viability (NCI-H1666; first compound 8 µM): 0.614 | relative viability (EMC-BAC-2; first compound 0.08 µM): 0.752 | relative viability (EMC-BAC-2; first compound 0.253 µM): 0.731 | relative viability (EMC-BAC-2; first compound 0.8 µM): 0.744 | relative viability (EMC-BAC-2; first compound 2.53 µM): 0.692 | relative viability (EMC-BAC-2; first compound 8 µM): 0.704 | relative viability (NCI-H1915; first compound 0.08 µM): 0.924 | relative viability (NCI-H1915; first compound 0.253 µM): 0.914 | relative viability (NCI-H1915; first compound 0.8 µM): 0.879 | relative viability (NCI-H1915; first compound 2.53 µM): 0.819 | relative viability (NCI-H1915; first compound 8 µM): 0.804 | relative viability (UMC-11; first compound 0.08 µM): 0.688 | relative viability (UMC-11; first compound 0.253 µM): 0.625 | relative viability (UMC-11; first compound 0.8 µM): 0.651 | relative viability (UMC-11; first compound 2.53 µM): 0.497 | relative viability (UMC-11; first compound 8 µM): 0.461 | relative viability (NCI-H3122; first compound 0.08 µM): 0.26 | relative viability (NCI-H3122; first compound 0.253 µM): 0.254 | relative viability (NCI-H3122; first compound 0.8 µM): 0.3 | relative viability (NCI-H3122; first compound 8 µM): 0.269 | relative viability (NCI-H1755; first compound 0.08 µM): 0.87 | relative viability (NCI-H1755; first compound 0.253 µM): 0.853 | relative viability (NCI-H1755; first compound 0.8 µM): 0.836 | relative viability (NCI-H1755; first compound 2.53 µM): 0.541 | relative viability (NCI-H1755; first compound 8 µM): 0.824 | relative viability (NCI-H441; first compound 0.08 µM): 0.857 | relative viability (NCI-H441; first compound 0.253 µM): 0.762 | relative viability (NCI-H441; first compound 0.8 µM): 0.556 | relative viability (NCI-H441; first compound 2.53 µM): 0.46 | relative viability (NCI-H441; first compound 8 µM): 0.585 | relative viability (NCI-H2126; first compound 0.08 µM): 1.04 | relative viability (NCI-H2126; first compound 0.253 µM): 1.07 | relative viability (NCI-H2126; first compound 0.8 µM): 1.01 | relative viability (NCI-H2126; first compound 2.53 µM): 0.735 | relative viability (NCI-H2126; first compound 8 µM): 0.972 | relative viability (HCC-78; first compound 0.08 µM): 0.358 | relative viability (HCC-78; first compound 0.253 µM): 0.338 | relative viability (HCC-78; first compound 0.8 µM): 0.36 | relative viability (HCC-78; first compound 2.53 µM): 0.308 | relative viability (HCC-78; first compound 8 µM): 0.4 | relative viability (LXF-289; first compound 0.08 µM): 0.795 | relative viability (LXF-289; first compound 0.253 µM): 0.793 | relative viability (LXF-289; first compound 0.8 µM): 0.812 | relative viability (LXF-289; first compound 2.53 µM): 0.739 | relative viability (LXF-289; first compound 8 µM): 0.806 | relative viability (NCI-H358; first compound 0.08 µM): 0.63 | relative viability (NCI-H358; first compound 0.253 µM): 0.696 | relative viability (NCI-H358; first compound 0.8 µM): 0.59 | relative viability (NCI-H358; first compound 2.53 µM): 0.565 | relative viability (NCI-H358; first compound 8 µM): 0.618 | relative viability (NCI-H1993; first compound 0.08 µM): 0.862 | relative viability (NCI-H1993; first compound 0.253 µM): 0.991 | relative viability (NCI-H1993; first compound 0.8 µM): 0.891 | relative viability (NCI-H1993; first compound 2.53 µM): 0.701 | relative viability (NCI-H1993; first compound 8 µM): 0.986 | relative viability (EPLC-272H; first compound 0.08 µM): 0.86 | relative viability (EPLC-272H; first compound 0.253 µM): 0.994 | relative viability (EPLC-272H; first compound 0.8 µM): 0.824 | relative viability (EPLC-272H; first compound 2.53 µM): 0.672 | relative viability (EPLC-272H; first compound 8 µM): 0.658
